Values joined by “and” are separate entries in the source; they are usually repeats but may differ in a detail not shown here. Equal values may be shown once.
System: 817829-284-R-J1-PDC complex spheroids, viability
Experiment: Anticancer human tumor 817829-284-R-J1-PDC patient-derived colon adenocarcinoma cell line growth inhibition [GQUAD]
Settings: for viability, T/C: stronger effect = lower value
Excerpt: DNA G-quadruplex Stabilizer Agents in Combinations in Complex Spheroids
A high-throughput screen of multi-cell type tumor spheroids was designed to identify active combinations of DNA G-quadruplex stabilizer agents and targeted small molecules. Complex spheroids include a stromal component modeled by human endothelial cells (HUVEC) and fibroblasts modeled by human mesenchymal stem cells (MSCs). The concentration ranges selected for each drug and investigational agent were based upon clinically achievable concentrations if the clinical Cmax of the agent was known.
Compounds. The drugs and investigational agents: pidnarulex (CX-5461; NSC782164), APTO-253 (NSC789042), BRACO-19 (NSC847499), peposertib (NSC802822), ceralasertib (NSC780249), elimusertib (NSC800525), camonsertib (NSC841442), AZD-1390 (NSC803789), olaparib (NSC753686), talazoparib (NSC767125), ART-558 (NSC835418), sotorasib (NSC818433), MRTX-1133 (NSC836407), SN-38 (NSC673596), topotecan (NSC609699), etoposide (NSC141540), doxorubicin (NSC123127), gemcitabine (NSC613327), 5-fluorouracil (NSC19893), paclitaxel (NSC125973), vemurafenib (NSC761431), panobinostat (NSC761190), R-306465 (JNJ-16241199; NSC773264), adavosertib (NSC754352), TP-3654 (NSC805149), carboplatin (NSC241240), KSQ-4279 (NSC840948), and staurosporine (NSC755774) were obtained from the National Cancer Institute (NCI) Developmental Therapeutics Program Chemical Repository (34). The FDA-approved anticancer drug set is available from the NCI Developmental Therapeutics Program. […] The stock solutions were prepared in dimethyl sulfoxide (DMSO, Sigma-Aldrich, St. Louis, MO, cat. D2650) at 800-fold the tested concentration and stored at -70 degrees C prior to their use. All drugs and investigational agents were tested over a range starting from a high concentration at or near the clinical Cmax and decreasing in half-log increments. If the clinical Cmax for an agent had not been determined, the highest concentration tested was 10 microM.
2.3 Cell Culture. All cells were maintained in an incubator at 37 degrees C and 5% CO2 with 95% humidity. The PDC lines were cultured according to standard operating procedures established by the NCI PDMR. All PDCs were thawed and cultured in Matrigel-coated flasks prepared with a working solution of 1X Ham's F-12 nutrient mix, without supplementation (Invitrogen, cat. 11765054), 100 U/mL penicillin-streptomycin (Invitrogen, cat. 15140122), and 2.5% Matrigel (Corning Inc., cat. 354248) for the first three passages. The 857933-349-R-J2-PDC line was cultured in 6C/Colon 1B media, which includes advanced DMEM/F-12 (Thermo Fisher Scientific, cat. 12634028), 10 mM HEPES (Thermo Fisher Scientific, cat. 15630080), 1X GlutaMAX supplement (Thermo Fisher Scientific, cat. 35050061), 0.1 mg/mL primocin (InvivoGen, cat. ant-pm-2), 10% defined fetal bovine serum, heat inactivated (HyClone Laboratories Inc., cat. SH30070.03HI), 50% L-WRN conditioned media (ATCC, cat. CRL-3276), 1.25 mM N-Acetyl-L-cysteine (Sigma-Aldrich, cat. A9165), 10 mM nicotinamide (Sigma-Aldrich, cat. N0636), 1X B-27 supplement (Thermo Fisher Scientific, cat. 17504044), 1X N-2 supplement (Thermo Fisher Scientific, cat. 17502048), 10 microM Y-27632 dihydrochloride (Tocris Bioscience, cat. 1254), and 50 ng/mL human EGF recombinant protein (Thermo Fisher Scientific, cat. PHG0311). The 485176-168-R4-J1-PDC line was cultured in Panc media, which includes all 6C/Colon 1B media components plus 100 ng/mL human FGF-10 (Thermo Fisher Scientific, cat. 100-26), 500 nM SB-431542 (Selleckchem, cat. S1067), and gastrin (Tocris, cat. 3006).
[…]
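Further: spheroids exposed to agents for 7 days before readout.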
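Wherever viability, T/C is given: percent viability relative to DMSO vehicle control taken as 100%.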

## Cc1cccc(N(C)C(=O)C2C(O)CCN2c2nc(C)cc(C(F)(F)F)c2C#N)c1 (centres undefined) + CN(C)c1ccc(Nc2c3ccc(NC(=O)CCN4CCCC4)cc3nc3cc(NC(=O)CCN4CCCC4)ccc23)cc1
Curve of first compound, second compound 0.0316 µM
  IC50: > 10 µM
Curve of first compound, second compound 0.1 µM
  IC50: > 10 µM
Curve of first compound, second compound 0.316 µM
  IC50: > 10 µM
Curve of first compound, second compound 1 µM
  IC50: > 10 µM
Curve of first compound, second compound 3.16 µM
  IC50: > 10 µM
Curve of first compound, second compound 10 µM
  IC50: 4.03 µM
Second compound 0.0316 µM, first compound 0.0316 µM
  viability, T/C: 101%
Second compound 0.0316 µM, first compound 0.1 µM
  viability, T/C: 102%
Second compound 0.0316 µM, first compound 0.316 µM
  viability, T/C: 92.5%
Second compound 0.0316 µM, first compound 1 µM
  viability, T/C: 90%
Second compound 0.0316 µM, first compound 3.16 µM
  viability, T/C: 92.8%
Second compound 0.0316 µM, first compound 10 µM
  viability, T/C: 85.4%
Second compound 0.1 µM, first compound 0.0316 µM
  viability, T/C: 89.3%
Second compound 0.1 µM, first compound 0.1 µM
  viability, T/C: 109%
Second compound 0.1 µM, first compound 0.316 µM
  viability, T/C: 90.1%
Second compound 0.1 µM, first compound 1 µM
  viability, T/C: 112%
Second compound 0.1 µM, first compound 3.16 µM
  viability, T/C: 93.3%
Second compound 0.1 µM, first compound 10 µM
  viability, T/C: 79.9%
Second compound 0.316 µM, first compound 0.0316 µM
  viability, T/C: 99.3%
Second compound 0.316 µM, first compound 0.1 µM
  viability, T/C: 96.8%
Second compound 0.316 µM, first compound 0.316 µM
  viability, T/C: 90.6%
Second compound 0.316 µM, first compound 1 µM
  viability, T/C: 93.1%
Second compound 0.316 µM, first compound 3.16 µM
  viability, T/C: 99.4%
Second compound 0.316 µM, first compound 10 µM
  viability, T/C: 90.8%
Second compound 1 µM, first compound 0.0316 µM
  viability, T/C: 95.5%
Second compound 1 µM, first compound 0.1 µM
  viability, T/C: 88.2%
Second compound 1 µM, first compound 0.316 µM
  viability, T/C: 90.5%
Second compound 1 µM, first compound 1 µM
  viability, T/C: 83.7%
Second compound 1 µM, first compound 3.16 µM
  viability, T/C: 94%
Second compound 1 µM, first compound 10 µM
  viability, T/C: 81%
Second compound 3.16 µM, first compound 0.0316 µM
  viability, T/C: 99.6%
Second compound 3.16 µM, first compound 0.1 µM
  viability, T/C: 99.3%
Second compound 3.16 µM, first compound 0.316 µM
  viability, T/C: 94.3%
Second compound 3.16 µM, first compound 1 µM
  viability, T/C: 91.8%
Second compound 3.16 µM, first compound 3.16 µM
  viability, T/C: 111%
Second compound 3.16 µM, first compound 10 µM
  viability, T/C: 82.1%
Second compound 10 µM, first compound 0.0316 µM
  viability, T/C: 97.7%
Second compound 10 µM, first compound 0.1 µM
  viability, T/C: 88.7%
Second compound 10 µM, first compound 0.316 µM
  viability, T/C: 85.7%
Second compound 10 µM, first compound 1 µM
  viability, T/C: 69.4%
Second compound 10 µM, first compound 3.16 µM
  viability, T/C: 52.2%
Second compound 10 µM, first compound 10 µM
  viability, T/C: 40.2%

## O=c1[nH]cc(F)c(=O)[nH]1
Compound 0.0316 µM
  viability, T/C: 97.6% and 102% and 99.2%
Compound 0.1 µM
  viability, T/C: 94.3% and 91.8% and 102%
Compound 0.316 µM
  viability, T/C: 127% and 111% and 106%
Compound 1 µM
  viability, T/C: 59.1% and 63.2% and 70.3%
Compound 3.16 µM
  viability, T/C: 39.4% (2×) and 42.5%
Compound 10 µM
  viability, T/C: 30.5% and 32.8% and 30.7%
Curve of compound
  IC50: 1.54 µM and 1.75 µM and 2.14 µM

From PubChem BioAssay AID2060503 (Molecular Pharmacology Branch, DTP, NCI, 2025)
